Assay results from patent EP0168881B1, “Oxa-fenchyl esters and amides of alpha-l-aspartyl-d-phenylglycine” (THE PROCTER & GAMBLE COMPANY, priority 1984, dated 1986).
Like-named read-outs stand apart in the source and are kept apart here. Non-standard residues stand in square brackets, D forms with d. Residues, ends and D or L forms follow the SMILES beside them. Phg = N[C@H](C(=O)O)c1ccccc1

Key:
[1] = cited from earlier work; for sweetness intensity: background art values; for taste: taste in words, background art
[2] = Sweetness intensity relative to sucrose, taste panel; type: in vivo, Male subjects; details: based on informal panel testing
Source text: The sweetness intensity of the esters and amides of the present invention relative to sucrose can be determined according to the following procedure:
Male subjects are chosen at random from a group of about 20 persons who have previously been selected on the basis of proven tasting acuity, i.e., persons who could.easily recognize the four basic tastes (sweet, sour, bitter and salty) and who are adept at quantifying their own physiological response numerically. The subjects are asked to taste and expectorate about 10 ml of a test sample (temperature of about 22°C) having dissolved therein the ester of amide. […] Sweetness intensity of the test sample is recorded by the subject making a mark on the linear scale at a point they consider equal in sweetness among the standard samples; interpolation between standards is encouraged. After completion of the panel, a five point numeric scale is superimposed on the linear scales to obtain numerical data; data is averaged and recorded to.the nearest 0.25 unit..Equivalent sucrose sweetness is determined by referring to graphs of (w/v) sucrose concentration in the standard samples versus a linear numeric scale.
Sweetness intensity is calculated by dividing the concentration (w/v) of perceived sweetness by the concentration (w/v) of the ester or amide required to produce that sweetness. […]

[3] = carbonated beverages; background statement; cited from earlier work

| SMILES | sweetness intensity [1] | other results |
| --- | --- | --- |
| C[C@@H](NC(=O)[C@@H](N)CC(=O)O)C(=O)NC1C(C)(C)S(=O)(=O)C1(C)C | 1000 times that of sucrose |  |
| CC12CCC(O1)C(C)(C)C2OC(=O)C(NC(=O)C(N)CC(=O)O)c1ccccc1 (single isomer, unassigned) [Example 2, alpha-L-Aspartyl-D-phenylglycine-alpha-7-oxa-fenchyl ester] |  | sweetness intensity [2]: approximately 1000 X |
| C[C@@H](NC(=O)[C@@H](N)CC(=O)O)C(=O)NC1C(C)(C)SC1(C)C [2,2,4,4-tetramethylthietan-3-yl] | 2000 times that of sucrose |  |
| CC1CCC(C)C1NC(=O)[C@@H](C)NC(=O)[C@@H](N)CC(=O)O (stereo partly drawn) [2,5-dimethylcyclopentyl] | 520 times that of sucrose |  |
| CC1CCCC(C)C1NC(=O)[C@@H](C)NC(=O)[C@@H](N)CC(=O)O (stereo partly drawn) [2,6-dimethylcyclohexyl] | 600 times that of sucrose |  |
| O=C1NS(=O)(=O)c2ccccc21 [Saccharin] | about 300 times that of sucrose | taste [1]: undesirable lingering bitter aftertaste |
| COC(=O)[C@H](Cc1ccccc1)NC(=O)[C@@H](N)CC(=O)O [aspartame, a/pha-L-aspartyl-L-phenylalanine lower alkyl esters, in particular the methyl ester known as aspartame] (H-Asp-Phe-OMe) | 150-200 times that of sucrose | hydrolytic stability [3]: hydrolytically unstable in most carbonated beverages |
| C[C@@H](NC(=O)[C@@H](N)CC(=O)O)C(=O)NC(C1CC1)C1CC1 [dicyclopropylcarbinyl] | 1200 times that of sucrose |  |
| C[C@@H](NC(=O)[C@@H](N)CC(=O)O)C(=O)NC1C2(C)CCC(C2)C1(C)C (stereo partly drawn) [fenchyl] | 320 times that of sucrose |  |
| COC(=O)[C@@H](Cc1ccccc1)NC(=O)[C@@H](N)CC(=O)O [methyl ester of L-aspartyl-D-phenylalanine] (H-Asp-[dF]-OMe) |  | taste [1]: bitter |
| COC(=O)[C@@H](NC(=O)[C@@H](N)CC(=O)O)c1ccccc1 [methyl ester of L-aspartyl-L-phenylglycine] (H-Asp-[Phg]-OMe) | 100-1000 times that of sucrose | taste [1]: quite sweet |
| COC(=O)C(NC(=O)[C@@H](N)CC(=O)O)C(=O)OC1C2(C)CCC(C2)C1(C)C (stereo partly drawn) [methyl] |  | sweetness intensity ([1]; listed as R^1a is methyl ester group, R^2a is fenchyl group): 22,200-33,200 times that of sucrose |
